# Experimental data reported in ChEMBL document CHEMBL4339189, “Dissymmetric pyridyl-substituted 3,5-bis(arylidene)-4-piperidones as anti-hepatoma agents by inhibiting NF-κB pathway activation” (Eur J Med Chem, 2019).
# Calls of active or inactive are those of the source. The rule behind the calls is not given here.
# Columns and labels:
# [1] = test system: HepG2; test: Cytotoxicity against human HepG2 cells assessed as reduction in cell viability incubated for 24 hrs by MTT assay; format: functional, cell-based; conditions: HepG2, 24 h
# [2] = test system: QGY-7703; test: Cytotoxicity against human QGY7703 cells assessed as reduction in cell viability incubated for 24 hrs by MTT assay; format: functional, cell-based; conditions: QGY-7703, 24 h
# [3] = test system: SMMC-7721; test: Cytotoxicity against human SMMC7721 cells assessed as reduction in cell viability incubated for 24 hrs by MTT assay; format: functional, cell-based; conditions: SMMC-7721, 24 h
# [4] = Cytotoxicity against human HHL5 cells assessed as reduction in cell viability incubated for 24 hrs by MTT assay; format: cell-based; conditions: HHL-5, 24 h
# [5] = test system: L02; test: Cytotoxicity against human LO2 cells assessed as reduction in cell viability incubated for 24 hrs by MTT assay; format: cell-based; conditions: L02, 24 h
# [6] = test system: RAW264.7; test: Cytotoxicity against mouse RAW264.7 cells assessed as reduction in cell viability at 6.0 uM incubated for 24 hrs by MTT assay; format: cell-based; conditions: raw264.7, 24 h
# [7] = test system: RAW264.7; test: Antiinflammatory activity in mouse RAW264.7 cells assessed as inhibition of LPS-stimulated TNF-alpha production at 6.0 uM preincubated for 2 hrs followed by LPS stimulaton measured after 22 hrs by ELISA relative to control; format: functional
# [8] = test system: RAW264.7; test: Antiinflammatory activity in mouse RAW264.7 cells assessed as inhibition of LPS-stimulated IL-6 production 6.0 uM preincubated for 2 hrs followed by LPS stimulaton measured after 22 hrs by ELISA relative to control; format: functional
SMILES,IC50 [1] [µM],IC50 [2] [µM],IC50 [3] [µM],IC50 [4] [µM],IC50 [5] [µM],Activity [6],inhibition [7],inhibition [8],inhibition at 6 µM [7] [%],inhibition (INH) [8] [%]
O=C1/C(=C/c2cccnc2)CN(S(=O)(=O)c2ccc([N+](=O)[O-])cc2)C/C1=C\c1ccccc1F,12.8,5.6,> 20,> 20,> 20,Non-Toxic,inactive,inactive,,
COc1cc(/C=C2\CN(C)C/C(=C\c3cccnc3)C2=O)cc(OC)c1OC,9.52,4.3,20.4,11.3,14.4,Non-Toxic,Active,Active,,
COc1ccc(/C=C2\CN(C)C/C(=C\c3cccnc3)C2=O)c(OC)c1OC,5.16,2.63,13.7,11.6,13.6,Non-Toxic,Active,Active,,
O=C1/C(=C/c2cccnc2)CN(S(=O)(=O)c2ccc(F)cc2)C/C1=C\c1ccccc1F,15.6,15.3,9.9,12.6,15.6,Non-Toxic,inactive,inactive,,
CN1C/C(=C\c2cccnc2)C(=O)/C(=C/c2ccc(F)cc2Br)C1,13,2.61,20.8,11.3,14.4,Non-Toxic,Active,Active,,
CN1C/C(=C\c2ccncc2)C(=O)/C(=C/c2ccccc2F)C1,4.6,4.9,7,18.5,14.9,Non-Toxic,Active,Active,,
CC(=O)Nc1ccc(S(=O)(=O)N2C/C(=C\c3ccncc3)C(=O)/C(=C/c3ccccc3F)C2)cc1,11.7,13.7,13.4,14.2,12.3,Non-Toxic,inactive,inactive,,
O=C1/C(=C/c2ccncc2)CN(S(=O)(=O)c2ccccc2)C/C1=C\c1ccccc1F,5.8,8.4,17.5,> 20,15.9,Non-Toxic,inactive,inactive,,
Cc1ccc(S(=O)(=O)N2C/C(=C\c3cccnc3)C(=O)/C(=C/c3ccccc3F)C2)cc1,4.2,9.7,10.3,15.3,14.9,Non-Toxic,Active,Active,,
O=C1/C(=C/c2ccncc2)CN(S(=O)(=O)c2ccc(Cl)cc2)C/C1=C\c1ccccc1F,5.3,12.5,9.6,11.5,15,Non-Toxic,Active,Active,,
N#Cc1ccc(S(=O)(=O)N2C/C(=C\c3cccnc3)C(=O)/C(=C/c3ccccc3C(F)(F)F)C2)cc1,5.06,6.15,9.65,11.2,13.2,Non-Toxic,Active,Active,,
COc1ccc(/C=C2\CN(C)C/C(=C\c3ccncc3)C2=O)c(OC)c1OC,3.56,8.35,9.08,11.9,15.6,Non-Toxic,Active,Active,,
CN1C/C(=C\c2ccc(C(F)(F)F)cc2)C(=O)/C(=C/c2cccnc2)C1,4.79,1.66,4.83,14.2,15.6,Non-Toxic,,,< 30,<30
O=C1/C(=C/c2cccnc2)CN(S(=O)(=O)c2ccc([N+](=O)[O-])cc2)C/C1=C\c1ccccc1C(F)(F)F,9.37,7.66,15.9,14.1,15.7,Non-Toxic,Active,Active,,
O=C1/C(=C/c2cccnc2)CN(S(=O)(=O)c2ccc(Cl)cc2)C/C1=C\c1ccccc1C(F)(F)F,3.62,3.44,4.88,11.1,11.9,Non-Toxic,Active,Active,,
COc1cc(/C=C2\CN(C)C/C(=C\c3cccnc3)C2=O)cc(OC)c1,6.91,7.9,17.9,> 20,18.4,Non-Toxic,Active,Active,,
CN1C/C(=C\c2cccnc2)C(=O)/C(=C/c2cc([N+](=O)[O-])ccc2F)C1,6.63,11.1,6.17,14.2,15.7,Non-Toxic,Active,Active,,
CN1C/C(=C\c2ccncc2)C(=O)/C(=C/c2ccc(C#N)cc2)C1,13.9,7.4,18.5,11.5,14,Non-Toxic,Active,Active,,
Cc1ccc(S(=O)(=O)N2C/C(=C\c3ccncc3)C(=O)/C(=C/c3ccccc3F)C2)cc1,9.7,> 20,13.2,13.3,> 20,Non-Toxic,inactive,inactive,,
CN1C/C(=C\c2ccncc2)C(=O)/C(=C/c2ccc(F)cc2Br)C1,9.2,6.9,23.8,11.6,12.4,Non-Toxic,Active,Active,,
O=C1/C(=C/c2cccnc2)CNC/C1=C\c1ccccc1C(F)(F)F,5.02,3.8,5.1,10.4,11.3,Non-Toxic,Active,Active,,
O=C1/C(=C/c2cccnc2)CN(S(=O)(=O)c2ccc(C(F)(F)F)cc2)C/C1=C\c1ccccc1F,2.4,4.5,7.9,14.3,11.3,Non-Toxic,Active,Active,,
N#Cc1ccc(S(=O)(=O)N2C/C(=C\c3ccncc3)C(=O)/C(=C/c3ccccc3F)C2)cc1,4.5,8.5,16.2,15.7,> 20,Non-Toxic,Active,Active,,
